{"source": "patent US6858741B2", "about": "“Alkyl-dihalogenated phenyl-substituted ketoenols useful as pesticides and herbicides” (Bayer Aktiengesellschaft, priority 1995, dated 2005)", "key": {"[1]": {"tested_on": "caterpillars of the diamond-back moth (Plutella maculipennis)", "test": "Plutella test", "assay_type": "in vivo", "settings": "after 7 days; active compound concentration 0.1%; dipped cabbage leaves", "protocol": "(§1) [table] To produce a suitable preparation of active compound, 1 part by weight of active compound is mixed with the stated amount of solvent and the stated amount of emulsifier, and the concentrate is diluted with water to the desired concentration. Cabbage leaves (Brassica oleracea) are treated by being dipped into the preparation of active compound of the desired concentration and are infested with caterpillars of the diamond-back moth (Plutella maculipennis) while the leaves are still moist. After the specified period of time, the destruction in % is determined. 100% means that all the caterpillars have been killed; 0% means that none of the caterpillars have been killed."}, "[2]": {"tested_on": "green rice leafhopper (Nephotettix cincticeps)", "test": "Nephotettix test", "assay_type": "in vivo", "settings": "after 6 days; active compound concentration 0.1%; dipped rice seedlings", "protocol": "as §1, with “Rice seedlings (Oryza sativa)” for “Cabbage leaves (Brassica oleracea)”, “with” for “with caterpillars of”, “green rice leafhopper (Nephotettix cincticeps)” for “diamond-back moth (Plutella maculipennis)”, “seedlings” for “leaves”, “leafhoppers” for “caterpillars”"}, "[3]": {"tested_on": "greenhouse red spider mite or two-spotted spider-mite (Tetranychus urticae)", "test": "Tetranychus test (OP-resistant/immersion treatment)", "assay_type": "in vivo", "settings": "after 13 days; active compound concentration 0.1%; immersion treatment of bean plants", "protocol": "(§2) [table] To produce a suitable preparation of active compound, 1 part by weight of active compound is mixed with the stated amount of solvent and the stated amount of emulsifier, and the concentrate is diluted with water to the desired concentrations. Bean plants (Phaseolus vulgaris) which are severely infested with all development stages of the greenhouse red spider mite or two-spotted spider-mite (Tetranychus urticae) are immersed in a preparation of active compound of the desired concentration. After the specified period of time, the destruction in % is determined. 100% means that all the spider mites have been killed; 0% means that none of the spider mites have been killed."}, "[4]": {"tested_on": "test plants", "test": "Pre-emergence test/greenhouse", "assay_type": "in vivo", "settings": "greenhouse, 250 g/ha, rated after three weeks vs untreated control, 0%=no action, 100%=total destruction", "protocol": "[table] To produce a suitable preparation of active compound, 1 part by weight of active compound is mixed with the stated amount of solvent, the stated amount of emulsifier is added and the concentrate is diluted with water to the desired concentration. Seeds of the test plants are sown in normal soil and, after 24 hours, watered with the preparation of the active compound. It is expedient to keep constant the amount of water per unit area The concentration of the active compound in the preparation is of no importance, only the amount of active compound applied per unit area being decisive. After three weeks, the degree of damage to the plants is rated in % damage in comparison to the development of the untreated control. The figures denote: • 0%=no action (like untreated control) 100%=total destruction [table]"}, "[5]": {"tested_on": "resistant Boophilus microplus, SP resistant Parkhurst strain", "test": "Test with resistant Boophilus microplus / SP resistant Parkhurst strain", "assay_type": "in vivo", "settings": "active compound concentration 20 μg/animal; injected into the abdomen", "protocol": "[table] 20 mg of active compound are dissolved in 1 ml of dimethyl sulphoxide, and lesser concentrations are prepared by dilution with the same solvent. The test is carried out in 5 applications. 1 μl of the solutions is injected into the abdomen, and the animals are transferred into dishes and kept in a controlled-environment cabinet. The activity is determined via the inhibition of oviposition. 100% means that no tick has produced eggs."}, "[6]": {"tested_on": "fly larvae", "test": "Test with fly larvae/development-inhibitory action", "assay_type": "in vivo", "settings": "active compound concentration 1000 ppm", "protocol": "[table] To produce a suitable formulation, 3 parts by weight of active compound are mixed with 7 parts of the abovementioned solvent/emulsifier mixture, and the resulting emulsion concentrate is diluted with water to the concentration desired in each case. For each concentration, 30 to 50 larvae are transferred to horsemeat (1 cm^3) located in glass tubes and 500 μl of the test dilution are pipetted onto the meat. The glass tubes are placed into plastic beakers whose bottom is covered with sea sand and kept in a control-environment cabinet (26° C.±1.5° C., 70% relative humidity±10%). The activity is checked after 24 hours and 48 hours (larvicidal action). After the larvae have left the glass tubes (approximately 72 hours), the tubes are removed, and perforated plastic lids are placed on the beakers. After 1½ times the development period (hatching of the control flies), the hatched flies and the pupae/puparia are counted. The criterion for the action is death in the treated larvae after 48 hours (larvicidal effect) or inhibition of adults hatching from the pupae or inhibition of pupation. The criterion for the in-vitro action of a substance is the inhibition of fly development or a standstill of development prior to the adult stage. 100% larvicidal activity means that all larvae have died after 48 hours. 100% development-inhibitory activity means that no adult flies have hatched."}, "[7]": {"tested_on": "caterpillars of the fall armyworm (Spodoptera frugiperda)", "test": "Spodoptera test", "assay_type": "in vivo", "settings": "after 7 days; active compound concentration 0.1%; dipped cabbage leaves", "protocol": "as §1, with “fall armyworm (Spodoptera frugiperda)” for “diamond-back moth (Plutella maculipennis)”"}, "[8]": {"tested_on": "green peach aphid (Myzus persicae)", "test": "Myzus test", "assay_type": "in vivo", "settings": "after 6 days; active compound concentration 0.1%; dipped cabbage leaves", "protocol": "as §1, with “oleracea) which are severely infested with the green peach aphid (Myzus persicae)” for “oleracea)”, “concentration.” for “concentration and are infested with caterpillars of the diamond-back moth (Plutella maculipennis) while the leaves are still moist.”, “aphids” for “caterpillars”"}, "[9]": {"tested_on": "mustard beetle larvae (Phaedon cochleariae)", "test": "Phaedon larvae test", "assay_type": "in vivo", "settings": "after 7 days; active compound concentration 0.1%; dipped cabbage leaves", "protocol": "[table] To produce a suitable preparation of active compound, 1 part by weight of active compound is mixed with the stated amount of solvent and the stated amount of emulsifier, and the concentrate is diluted with water to the desired concentration. Cabbage leaves (Brassica oleracea) are treated by being dipped into the preparation of the active compound of the desired concentration and are infested with mustard beetle larvae (Phaedon cochleariae) while the leaves are still moist. After the specified period of time, the destruction in % is determined. 100% means that all the beetle larvae have been killed; 0% means that none of the beetle larvae have been killed."}, "[10]": {"tested_on": "greenhouse red spider mite or two-spotted spider-mite (Tetranychus urticae)", "test": "Tetranychus test (OP-resistant/spray treatment)", "assay_type": "in vivo", "settings": "after 7 days; active compound concentration 0.004%; spray treatment of bean plants", "protocol": "as §2, with “sprayed with” for “immersed in”"}, "[11]": {"tested_on": "test plants", "test": "Post-emergence test", "assay_type": "in vivo", "settings": "post-emergence (footnote *); 250 g/ha; rated after three weeks vs untreated control; 0%=no action, 100%=total destruction"}}, "data": [{"smiles": "Cc1cc(Cl)c(C2=C(O)C3(CCC(C)CC3)NC2=O)c(Cl)c1", "note": "(single isomer, unassigned) [Example I-1-a-7]", "values": [{"measurement": "destruction", "setting": "[1]", "value": 100, "unit": "%"}, {"measurement": "destruction", "setting": "[2]", "value": 100, "unit": "%"}, {"measurement": "activity (destruction)", "setting": "[3]", "value": 100, "unit": "%"}, {"measurement": "degree of damage, Alopecurus myosuroides", "setting": "[4]", "value": 100, "unit": "%"}, {"measurement": "degree of damage, Avena fatua", "setting": "[4]", "value": 90, "unit": "%"}, {"measurement": "degree of damage, Setaria viridis", "setting": "[4]", "value": 100, "unit": "%"}, {"measurement": "degree of damage, Sinapis arvensis", "setting": "[4]", "value": 100, "unit": "%"}]}, {"smiles": "Cc1cc(Cl)cc(Cl)c1C1=C(OC(=O)C(C)C)C2(CCCC(C)C2)NC1=O", "note": "(single isomer, unassigned) [Example I-1-b-3]", "values": [{"measurement": "activity (inhibition of oviposition)", "setting": "[5]", "value": 100, "unit": "%"}, {"measurement": "activity (larvicidal / development-inhibitory)", "setting": "[6]", "value": 100, "unit": "%"}]}, {"smiles": "Cc1cc(Cl)cc(Cl)c1C1=C(OC(=O)c2ccccc2)C2(CCCC(C)C2)NC1=O", "note": "(single isomer, unassigned) [Example I-1-b-5]", "values": [{"measurement": "destruction", "setting": "[7]", "value": 100, "unit": "%"}]}, {"smiles": "CCOC(=O)OC1=C(c2c(C)cc(Cl)cc2Cl)C(=O)NC12CCC(C)CC2", "note": "(single isomer, unassigned) [Example I-1-c-4]", "values": [{"measurement": "destruction", "setting": "[2]", "value": 100, "unit": "%"}, {"measurement": "activity (destruction)", "setting": "[3]", "value": 100, "unit": "%"}, {"measurement": "degree of damage, Alopecurus myosuroides", "setting": "[4]", "value": 100, "unit": "%"}, {"measurement": "degree of damage, Avena fatua", "setting": "[4]", "value": 100, "unit": "%"}, {"measurement": "degree of damage, Beta vulgaris", "setting": "[4]", "value": 50, "unit": "%"}, {"measurement": "degree of damage, Setaria viridis", "setting": "[4]", "value": 100, "unit": "%"}, {"measurement": "degree of damage, Sinapis arvensis", "setting": "[4]", "value": 100, "unit": "%"}]}, {"smiles": "Cc1cc(Cl)cc(Cl)c1C1=C(O)C(C)(C(C)C)NC1=O", "note": "(stereo not shown) [Example I-1-a-1]", "values": [{"measurement": "destruction", "setting": "[1]", "value": 100, "unit": "%"}, {"measurement": "destruction", "setting": "[2]", "value": 100, "unit": "%"}, {"measurement": "destruction", "setting": "[8]", "value": 100, "unit": "%"}]}, {"smiles": "Cc1cc(Cl)cc(Cl)c1C1=C(O)C2(CCOCC2)NC1=O", "note": "[Example I-1-a-5]", "values": [{"measurement": "activity (inhibition of oviposition)", "setting": "[5]", "value": 100, "unit": "%"}, {"measurement": "activity (larvicidal / development-inhibitory)", "setting": "[6]", "value": 100, "unit": "%"}]}, {"smiles": "Cc1cc(Cl)c(C2=C(O)C3(CCOCC3)NC2=O)c(Cl)c1", "note": "[Example I-1-a-10]", "values": [{"measurement": "destruction", "setting": "[9]", "value": 100, "unit": "%"}, {"measurement": "activity (destruction)", "setting": "[3]", "value": 100, "unit": "%"}]}, {"smiles": "CC(=O)OC1=C(c2c(C)cc(Cl)cc2Cl)C(=O)NC12CCCCC2", "note": "[Example I-1-b-7]", "values": [{"measurement": "destruction", "setting": "[9]", "value": 100, "unit": "%"}, {"measurement": "destruction", "setting": "[8]", "value": 100, "unit": "%"}, {"measurement": "activity (destruction)", "setting": "[3]", "value": 100, "unit": "%"}, {"measurement": "degree of damage, Alopecurus myosuroides", "setting": "[4]", "value": 95, "unit": "%"}, {"measurement": "degree of damage, Avena fatua", "setting": "[4]", "value": 80, "unit": "%"}, {"measurement": "degree of damage, Beta vulgaris", "setting": "[4]", "value": 30, "unit": "%"}, {"measurement": "degree of damage, Setaria viridis", "setting": "[4]", "value": 100, "unit": "%"}, {"measurement": "degree of damage, Sinapis arvensis", "setting": "[4]", "value": 100, "unit": "%"}]}, {"smiles": "Cc1cc(Cl)cc(Cl)c1C1=C(O)C2(CCCCC2)OC1=O", "note": "[Example I-2-a-1, 3-(2,4-dichloro-6-methyl-phenyl)-5-spirocyclohexyltetronic acid]", "values": [{"measurement": "melting point", "value": "> 240", "unit": "°C"}]}, {"smiles": "Cc1cc(Cl)c(C2=C(O)C3(CCCCC3)OC2=O)c(Cl)c1", "note": "[Example I-2-a-5]", "values": [{"measurement": "destruction", "setting": "[8]", "value": 100, "unit": "%"}]}, {"smiles": "Cc1cc(Cl)c(C2=C(O)C3(CCC(C)CC3)OC2=O)c(Cl)c1", "note": "(stereo not shown) [Example I-2-a-6]", "values": [{"measurement": "destruction", "setting": "[9]", "value": 100, "unit": "%"}, {"measurement": "destruction", "setting": "[8]", "value": 100, "unit": "%"}, {"measurement": "activity (inhibition of oviposition)", "setting": "[5]", "value": 100, "unit": "%"}, {"measurement": "activity (larvicidal / development-inhibitory)", "setting": "[6]", "value": 100, "unit": "%"}]}, {"smiles": "Cc1cc(Cl)cc(Cl)c1C1=C(OC(=O)C(C)(C)C)C2(CCCCC2)OC1=O", "note": "[Example I-2-b-1, 4-pivaloyl-oxy-3-(2,4-dichloro-6-methyl-phenyl)-5-spiro-cyclohexyl-tetronic acid]", "values": [{"measurement": "activity (destruction)", "setting": "[10]", "value": 100, "unit": "%"}, {"measurement": "melting point", "value": 137, "unit": "°C"}]}, {"smiles": "Cc1cc(Cl)c(C2=C(O)C3(CCCCC3)SC2=O)c(Cl)c1", "note": "[Example I-3-a-2]", "values": [{"measurement": "destruction", "setting": "[9]", "value": 100, "unit": "%"}, {"measurement": "destruction", "setting": "[2]", "value": 100, "unit": "%"}, {"measurement": "activity (destruction)", "setting": "[3]", "value": 100, "unit": "%"}, {"measurement": "degree of damage, Amaranthus", "setting": "[4]", "value": 60, "unit": "%"}, {"measurement": "degree of damage, Beta vulgaris", "setting": "[4]", "value": 0, "unit": "%"}]}, {"smiles": "Cc1cc(Cl)c(C2=C(OC(=O)C(C)(C)C)C3(CCCCC3)SC2=O)c(Cl)c1", "note": "[Example I-3-b-1]", "values": [{"measurement": "destruction", "setting": "[1]", "value": 100, "unit": "%"}, {"measurement": "destruction", "setting": "[2]", "value": 100, "unit": "%"}, {"measurement": "activity (destruction)", "setting": "[3]", "value": 100, "unit": "%"}]}, {"smiles": "Cc1cc(Cl)cc(Cl)c1-c1c(O)c(C)c(-c2ccccn2)oc1=O", "note": "[Example I-5-a-1]", "values": [{"measurement": "degree of damage, Alopecurus myosuroides", "setting": "[4]", "value": 80, "unit": "%"}, {"measurement": "degree of damage, Beta vulgaris", "setting": "[4]", "value": 0, "unit": "%"}, {"measurement": "degree of damage, Alopecurus myosuroides", "setting": "[11]", "value": 80, "unit": "%"}, {"measurement": "degree of damage, Beta vulgaris", "setting": "[11]", "value": 0, "unit": "%"}]}]}
